According to patent US20250064057A1, “HARMFUL ALGAL BLOOM MITIGATION” (priority 2023, published 2025):

Legend:
[1] = system: K. brevis; conditions: other studies; cited from earlier work
[2] = system: Karenia brevis; assay: K. brevis cell abundance reduction (% R relative to control) in laboratory beakers/aquaria; format: cell-based; conditions: for mean % R in K. brevis cell abundance: beginning at 4 h

| SMILES | effect on K. brevis cells [1] | mean % R in K. brevis cell abundance ([2]; 30 mg/L curcumin) [%] | mean % R in K. brevis cell abundance ([2]; 40 mg/L curcumin) [%] | reduction in K. brevis (best mitigation results) ([2]; 20-40 mg/L curcumin, T2-T6) | minimum concentration of curcumin for a reduction in K. brevis ([2]; laboratory studies) [mg/L] |
| --- | --- | --- | --- | --- | --- |
| CCCCOC(=O)c1ccccc1C(=O)OCCCC [dibutyl phthalate] | inhibit cell growth, decrease cell abundance, reduce chlorophyll a, and cause oxidative stress |  |  |  |  |
| COc1cc(/C=C/C(=O)CC(=O)/C=C/c2ccc(O)c(OC)c2)ccc1O [curcumin, (1E,6E)-1,7-Bis (4 (hydroxy-3-methoxyphenyl)-1,6-heptadiene-3,5-dione)] |  | > 90 | > 90 | 60-100% | 5 |
